Assay results taken from PubChem BioAssay AID1259408 (Genetic Toxicology Data Bank (GENE-TOX), 2018).
Active and inactive are the calls of the source. No rule for the calls is given here.

Test system: GENE-TOX genotoxicity assays, various organisms and cells
Assay: GENE-TOX mutagenicity studies
Conditions: for call: Assay Type: In vivo carcinogenicity studies
[1] = Species/Cell Type: Escherichia coli polA (W3119 vs P3478), Assay Type: Rec-assay, DNA effects (bacterial DNA repair), Assay Code: RE1+, Evaluation Type: Evaluation A (Pre-1980)
[2] = Species/Cell Type: Saccharomyces cerevisiae, Assay Type: Mitotic recombination or gene conversion, Assay Code: YEH+, Evaluation Type: Evaluation A (Pre-1980)
[3] = Species/Cell Type: Salmonella typhimurium (one or more of the five standard strains: TA98, TA100, TA1535, TA1537, and TA1538), Assay Type: Histidine reverse gene mutation, Ames assay, Assay Code: SALT, Evaluation Type: Evaluation A (Pre-1980)
[4] = Species/Cell Type: Bacillus subtilis (H17 vs M45), Assay Type: Rec-assay, spot test, DNA effects (bacterial DNA repair), Assay Code: REWT, Evaluation Type: Evaluation A (Pre-1980)
[5] = Species/Cell Type: Human diploid fibroblasts, Assay Type: Unscheduled DNA synthesis (UDS) in vitro, DNA effects, Assay Code: UDH-, Evaluation Type: Evaluation A (Pre-1980)
[6] = Species/Cell Type: Mammalian polychromatic erythrocytes, Assay Type: Micronucleus test, chromosome aberrations, Assay Code: MNTT, Evaluation Type: Evaluation B (Post-1980)
[7] = Species/Cell Type: Salmonella typhimurium (one or more of the five standard strains: TA98, TA100, TA1535, TA1537, and TA1538), Assay Type: Histidine reverse gene mutation, Ames assay, Assay Code: SAL-, Evaluation Type: Evaluation A (Pre-1980)
[8] = Species/Cell Type: Drosophila melanogaster, Assay Type: Sex-linked recessive lethal gene mutation, Assay Code: SRLT, Evaluation Type: Evaluation A (Pre-1980)
[9] = Species/Cell Type: Vicia faba, Assay Type: Chromosome aberrations, Assay Code: VIC+D, Dose Response: With dose response, Evaluation Type: Evaluation A (Pre-1980)
[10] = Species/Cell Type: Saccharomyces cerevisiae, Assay Type: Mitotic recombination or gene conversion, Assay Code: YEC-, Evaluation Type: Evaluation A (Pre-1980)

ClC(Cl)C(Cl)Cl
mutagenic call [1]: active; positive | call (Species/Cell Type: Nonhuman, Assay Code: CCG+L, Evaluation Type: Evaluation A (Pre-1980)): active; positive | mutagenic call (Species/Cell Type: Saccharomyces cerevisiae, Assay Type: Mitotic recombination or gene conversion, Assay Code: YEC+, Evaluation Type: Evaluation A (Pre-1980)): active; positive | mutagenic call [2]: active; positive | mutagenic call (Species/Cell Type: Saccharomyces cerevisiae, Assay Type: Reverse gene mutation, Assay Code: YER+, Evaluation Type: Evaluation A (Pre-1980)): active; positive

CC(=O)Nc1ccccc1
mutagenic call (Species/Cell Type: Human, Assay Type: Sister-chromatid exchange (SCE) in vitro, Assay Code: SC1T, Evaluation Type: Evaluation B (Post-1980)): no conclusion | mutagenic call [3]: no conclusion | mutagenic call (Species/Cell Type: Salmonella typhimurium, Assay Type: Forward and reverse gene mutation, host-mediated assay, Assay Code: HMA-, Evaluation Type: Evaluation A (Pre-1980)): inactive; negative

COP(=O)(NC(C)=O)SC (centres undefined)
mutagenic call [4]: no conclusion | mutagenic call (Species/Cell Type: Drosophila melanogaster, Assay Type: Sex-linked recessive lethal gene mutation, Assay Code: SRL-, Evaluation Type: Evaluation A (Pre-1980)): inactive; negative | mutagenic call (Species/Cell Type: Escherichia coli WP2 UVRA, Assay Type: Tryptophan reverse gene mutation, Assay Code: WPU-*, Activation: With metabolic activation, Evaluation Type: Evaluation A (Pre-1980)): inactive; negative | mutagenic call (Species/Cell Type: Escherichia coli polA (W3119 vs P3478), Assay Type: Rec-assay, DNA effects (bacterial DNA repair), Assay Code: RE1T, Evaluation Type: Evaluation A (Pre-1980)): no conclusion | mutagenic call [5]: inactive; negative | mutagenic call [6]: no conclusion | mutagenic call (Species/Cell Type: Neurospora crassa, Assay Type: Aneuploidy, chromosome aberrations, Assay Code: NEN-, Evaluation Type: Evaluation A (Pre-1980)): inactive; negative | mutagenic call (Species/Cell Type: Nonhuman, Assay Type: Sister-chromatid exchange (SCE) in vivo, Assay Code: SC3T, Evaluation Type: Evaluation B (Post-1980)): no conclusion | mutagenic call [2]: active; positive | mutagenic call [7]: inactive; negative

CN(C)C(=O)Cl
mutagenic call [1]: active; positive | mutagenic call [5]: inactive; negative | mutagenic call (Species/Cell Type: Mammalian polychromatic erythrocytes, Assay Type: Micronucleus test, chromosome aberrations, Assay Code: MNT+, Evaluation Type: Evaluation A (Pre-1980)): active; positive | call (Species/Cell Type: Nonhuman, Assay Code: CCG+, Evaluation Type: Evaluation A (Pre-1980)): active; positive | mutagenic call (Species/Cell Type: Nonhuman, Assay Type: Sister-chromatid exchange (SCE) in vitro, Assay Code: SC2+D, Dose Response: With dose response, Evaluation Type: Evaluation B (Post-1980)): active; positive | mutagenic call [2]: active; positive | mutagenic call (Species/Cell Type: Salmonella typhimurium (one or more of the five standard strains: TA98, TA100, TA1535, TA1537, and TA1538), Assay Type: Histidine reverse gene mutation, Ames assay, Assay Code: SAL+, Evaluation Type: Evaluation A (Pre-1980)): active; positive | mutagenic call (Species/Cell Type: Salmonella typhimurium, Assay Type: Forward and reverse gene mutation, host-mediated assay, Assay Code: HMA+, Evaluation Type: Evaluation A (Pre-1980)): active; positive | mutagenic call (Species/Cell Type: Syrian hamster embryo (SHE) cells, Assay Type: Cell transformation, clonal assay, Assay Code: CTC+, Evaluation Type: Evaluation A (Pre-1980)): active; positive

CC(=O)N(OS(=O)(=O)O)c1ccc2c(c1)Cc1ccccc1-2
mutagenic call [8]: no conclusion

Cc1ccc2cc3c4c(ccc3c3c2c1CC3)C=C[C@H](O)[C@H]4O
mutagenic call (Species/Cell Type: Chinese hamster lung (V79) cells, Assay Type: Forward gene mutation at the HPRT or ouabain locus, Assay Code: V79+, Evaluation Type: Evaluation A (Pre-1980)): active; positive | call (Species/Cell Type: Nonhuman, Assay Code: CCGT, Evaluation Type: Evaluation A (Pre-1980)): no conclusion | mutagenic call (Species/Cell Type: Salmonella typhimurium (one or more of the five standard strains: TA98, TA100, TA1535, TA1537, and TA1538), Assay Type: Histidine reverse gene mutation, Ames assay, Assay Code: SAL+*, Activation: With metabolic activation, Evaluation Type: Evaluation A (Pre-1980)): active; positive

Oc1ccc(O)cc1
mutagenic call (Species/Cell Type: Allium cepa, Assay Type: Chromosome aberrations, Assay Code: ALC+, Evaluation Type: Evaluation A (Pre-1980)): active; positive | mutagenic call (Species/Cell Type: Human lymphocytes, Assay Type: Sister-chromatid exchange (SCE) in vitro, Assay Code: SCL+D, Dose Response: With dose response, Evaluation Type: Evaluation B (Post-1980)): active; positive | mutagenic call (Species/Cell Type: Human, Assay Type: Sister-chromatid exchange (SCE) in vitro, Assay Code: SC1+D, Dose Response: With dose response, Evaluation Type: Evaluation B (Post-1980)): active; positive | mutagenic call (Species/Cell Type: Mammalian polychromatic erythrocytes, Assay Type: Micronucleus test, chromosome aberrations, Assay Code: MNT+, Evaluation Type: Evaluation B (Post-1980)): active; positive

CCCO
mutagenic call (Species/Cell Type: Nonhuman, Assay Type: Sister-chromatid exchange (SCE) in vitro, Assay Code: SC2-, Evaluation Type: Evaluation A (Pre-1980)): inactive; negative

O=NN(CCCCO)CCCCO
mutagenic call [3]: no conclusion

CC(=O)Oc1c(Cl)c(Cl)c(Cl)c(Cl)c1Cl
mutagenic call [4]: no conclusion

CCN(Cc1cccc(S(=O)(=O)O)c1)c1ccc(C(=C2C=CC(=[N+](CC)Cc3cccc(S(=O)(=O)O)c3)C=C2)c2ccccc2S(=O)(=O)[O-])cc1
mutagenic call (Species/Cell Type: Bacillus subtilis (H17 vs M45), Assay Type: Rec-assay, spot test, DNA effects (bacterial DNA repair), Assay Code: REW-, Evaluation Type: Evaluation A (Pre-1980)): inactive; negative | mutagenic call [7]: inactive; negative

COc1ccc2c(ccc3c4c(ccc32)C(C)CC4)c1 (centres undefined)
mutagenic call [3]: no conclusion

C[N+](C)(C)CCCl
call (Species/Cell Type: Nonhuman, Assay Code: CCG-, Evaluation Type: Evaluation A (Pre-1980)): inactive; negative | mutagenic call [9]: active; positive

OC1c2ccccc2C2OC2[C@H]1O (some centres undefined)
mutagenic call [1]: active; positive

O=C1c2cccc(O)c2C(=O)c2c(NCCNCCO)ccc(NCCNCCO)c21
mutagenic call (Species/Cell Type: Nonhuman, Assay Type: Sister-chromatid exchange (SCE) in vitro, Assay Code: SC2+, Evaluation Type: Evaluation B (Post-1980)): active; positive

CCCC(C)(C)C(=O)Nc1ccc(Cl)cc1
mutagenic call [10]: inactive; negative

O=C(O)C(c1ccc(Cl)cc1)c1ccc(Cl)cc1
mutagenic call (Species/Cell Type: Drosophila melanogaster, Assay Type: Sex-linked recessive lethal gene mutation, Assay Code: SRL+, Evaluation Type: Evaluation A (Pre-1980)): active; positive | mutagenic call (Species/Cell Type: Nonhuman, Assay Type: Chromosome aberrations in vitro, Assay Code: CY&-, Evaluation Type: Evaluation A (Pre-1980)): inactive; negative | mutagenic call (Species/Cell Type: Salmonella typhimurium, Serratia marcesens, Assay Type: Forward and reverse gene mutation, host-mediated assay, Assay Code: HM2-, Evaluation Type: Evaluation A (Pre-1980)): inactive; negative

C[C@]1(O)CC[C@H]2[C@@H]3CCC4=CC(=O)CC[C@]4(C)[C@@]3(F)[C@@H](O)C[C@@]21C
mutagenic call (Species/Cell Type: Human, Sex: Male, Assay Type: Sperm morphology, Assay Code: SPHT, Evaluation Type: Evaluation A (Pre-1980)): no conclusion

CC(=O)C(NC(=O)C(C)C(O)C(C)NC(=O)C(NC(=O)c1nc(C(CC(N)=O)NCC(N)C(N)=O)nc(N)c1C)C(O[C@@H]1O[C@@H](CO)[C@@H](O)[C@H](O)[C@]1(C)O[C@@H]1OC(CO)[C@H](O)[C@](O)(C(N)=O)[C@H]1O)c1cnc[nH]1)C(=O)NCCC1=NC(c2nc(C(N)=O)cs2)CS1 (some centres undefined)
mutagenic call (Species/Cell Type: Mammalian oocytes or early embryo, Assay Type: Chromosome aberrations in vivo, Assay Code: CYO+, Evaluation Type: Evaluation A (Pre-1980)): active; positive | mutagenic call [9]: active; positive

CN(C)c1ccc(C(=C2C=CC(=[N+](C)C)C=C2)c2c(O)c(S(=O)(=O)[O-])cc3cc(S(=O)(=O)O)ccc23)cc1
mutagenic call [10]: inactive; negative

Cc1ccc(C)cc1
mutagenic call [6]: no conclusion

CN(C)Cc1cc(Br)ccc1OCC(=O)N/N=C/c1ccccc1
mutagenic call (Species/Cell Type: Saccharomyces cerevisiae, Assay Type: Reverse gene mutation, Assay Code: YERT, Evaluation Type: Evaluation A (Pre-1980)): no conclusion

CCOc1ccccc1C(N)=O
mutagenic call (Species/Cell Type: Human, Assay Type: Sister-chromatid exchange (SCE) in vitro, Assay Code: SC1+, Evaluation Type: Evaluation B (Post-1980)): active; positive

NCCCC[C@H](N)C(=O)O
mutagenic call (Species/Cell Type: Human, Sex: Male, Assay Type: Sperm morphology, Assay Code: SPH-, Evaluation Type: Evaluation A (Pre-1980)): inactive; negative

O=NN1CCCCC1C(=O)O (centres undefined)
mutagenic call [8]: no conclusion

Cn1cc[nH]c1=S
mutagenic call [6]: no conclusion
